In patent US20110117165A1, “IMPLANTABLE BONE GRAFT MATERIALS” (AFFINERGY, INC., priority 2009, published 2011):
Ends that are not written are not given here. MP = mini-PEG unit; Mpa = O=C(O)CCS

Columns and labels:
[1] = target: T1, BMP-2 (Homo sapiens, UniProt P12643); test: Binding of immobilized biotinylated BMP binding peptides to BMP-2 (ELISA); settings: BMP-2 at 200, 20 and 2 nM, 45 minutes
T1 sequence (P12643 283-396): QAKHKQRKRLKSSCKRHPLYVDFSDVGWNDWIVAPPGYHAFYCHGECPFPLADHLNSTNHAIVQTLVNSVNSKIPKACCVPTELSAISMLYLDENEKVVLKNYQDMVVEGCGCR
Method: (§1) BMP binding peptides SEQ ID NOs:1-4 & 8-10 were identified as described in US Patent Application Publication No. US20060051395A1. Briefly, the peptides were identified by phage display using immobilized BMP-2 as a substrate for the phage library selections. Synthetic peptides SEQ ID NOs: 1-2 were determined to bind to BMP-2 with a relative EC50 value of 0.8 nM and 0.9 nM, respectively (data not shown). Separately, the relative binding affinity of peptides SEQ ID NOs: 1-2 for BMP-2 is shown in FIG. 14A (SEQ ID NO: 1 is denoted as P9 and SEQ ID NO: 2 is denoted as P10). Briefly, the results shown in FIG. 14A were generated by immobilizing biotinylated BMP binding peptides SEQ ID NOs:1 & 2 on streptavidin coated plates. Serial dilutions of 200 nM, 20 nM and 2 nM of BMP-2 were incubated with the immobilized BMP binding peptides for 45 minutes, washed, and bound BMP quantified using ELISA.

[2] = target: T2, BMP-7 (Homo sapiens, UniProt P18075); test: Binding of immobilized BMP binding peptides to BMP-7 (ELISA)
T2 sequence (P18075 293-431): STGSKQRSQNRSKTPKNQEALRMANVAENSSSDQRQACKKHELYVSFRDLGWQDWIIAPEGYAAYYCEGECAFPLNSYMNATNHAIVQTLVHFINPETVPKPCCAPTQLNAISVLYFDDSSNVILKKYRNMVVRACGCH

[3] = target: T3, BMP-5 (Homo sapiens, UniProt P22003); test: Binding of immobilized BMP binding peptides to BMP-5 (ELISA); settings: BMP at 100 nM and 10 nM
T3 sequence (P22003 317-454): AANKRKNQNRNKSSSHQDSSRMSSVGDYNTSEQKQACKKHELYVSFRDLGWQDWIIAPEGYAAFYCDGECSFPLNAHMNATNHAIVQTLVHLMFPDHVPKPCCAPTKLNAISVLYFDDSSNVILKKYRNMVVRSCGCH
Method: as §1
(§2) BMP binding peptides SEQ ID NOs: 5-7 were identified as described in US Patent Application Publication No. US20090098175A1. Briefly, the peptides were identified by phage display using immobilized GDF-7 (GDF-7 is BMP-12) as a substrate for the phage library selections. […] The data shown in FIG. 14C were collected similarly to that described above for FIGS. 14A-14B except that the serial dilutions of BMP were 100 nM and 10 nM.

[4] = target: T4, BMP-6 (Homo sapiens, UniProt P22004); test: Binding of immobilized BMP binding peptides to BMP-6 (ELISA); settings: BMP at 100 nM and 10 nM
T4 sequence (P22004 375-513): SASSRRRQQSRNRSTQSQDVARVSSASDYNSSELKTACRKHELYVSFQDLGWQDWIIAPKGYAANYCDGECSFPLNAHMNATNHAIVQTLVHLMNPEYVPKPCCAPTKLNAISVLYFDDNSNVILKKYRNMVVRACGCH
Method: as §1, §2

[5] = system: C2C12 cells; test: Alkaline phosphatase secretion by C2C12 cells in response to BMP-2; assay type: cell-based; settings: peptide 0-3500 nM, 3 days
Method: In an experiment to test the biological activity of BMP-2 delivered by BMP binding peptide, alkaline phosphatase secreted by C2C12 cells in response to BMP-2 was measured in the presence and absence of BMP binding peptide in solution. C2C12 cells were incubated with BMP-2 (35 nM) and BMP binding peptide at a concentration ranging from 0-3500 nM. The C2C12 cells were incubated with the BMP-2 and BMP binding peptide for 3 days and the alkaline phosphatase assay was performed as described herein above.

[6] = target: T5, GDF-7 (BMP-12) (Homo sapiens, UniProt Q7Z4P5); test: Binding to GDF-7 (phage display selection substrate)
T5 sequence (Q7Z4P5 322-450): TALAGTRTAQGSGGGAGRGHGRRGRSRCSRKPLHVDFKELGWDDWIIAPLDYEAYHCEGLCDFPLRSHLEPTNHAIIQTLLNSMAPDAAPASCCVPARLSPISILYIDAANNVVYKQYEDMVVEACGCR
Method: as §2

[7] = target: T6, BMP-2 (UniProt P12643 283-396); test: relative EC50 of peptide on BMP-2; format not described, data not shown
T6 construct: also called bone morphogenic protein 2

[8] = target: T6, BMP-2; test: collagenase digest of sponge after 24 h in plasma, ELISA; data not shown
Method: The BMP binding peptide-modified […] collagen sponges generated in Example 2 were evaluated for ability to bind and retain BMP-2. […] The amount of BMP-2 released into the plasma at each time-point was measured by ELISA (QUANTIKINE, R&D SYSTEMS), and the amount retained on the sponge after 24 h was estimated by Western blot analysis. […] After 24 h, the sponges were digested by collagenase, and the amount of BMP-2 retained on the sponges was quantified by ELISA.

[9] = target: T6, BMP-2; test: relative EC50 of synthetic peptide on BMP-2; format not described, data not shown

Question: How did the “relative binding affinity for BMP-2 (FIG. 14A)” value [1] turn out when “GGALGFPLKGEVVEGWA-NH2 (C-terminus assumed) [SEQ ID NO: 2]” was run?
Answer: high relative affinity

Question: And the “relative binding affinity for BMP-7 (FIG. 14B)” value [2]?
Answer: high relative affinity

Question: What about the “binding to BMP-5 (FIG. 14C)” value [3] of the same molecule?
Answer: bind

Question: What about the “binding to BMP-6 (FIG. 14C)” value [4] of the same molecule?
Answer: bind

Question: What about the “effect on BMP-2 biological activity (alkaline phosphatase secretion)” value ([5]; BMP-2 35 nM) of the same molecule?
Answer: does not interfere with the biological activity of BMP-2

Question: And the “BMP-2 activity of the peptide on its own” value [5]?
Answer: does not have BMP-2 activity on its own

Question: What does the source list for GGGAWEAFSSLSGSRV [SEQ ID NO: 1]?
Answer: relative binding affinity for BMP-2 (FIG. 14A) [1]: high relative affinity; relative binding affinity for BMP-7 (FIG. 14B) [2]: high relative affinity; binding to BMP-5 (FIG. 14C) [3]: bind; binding to BMP-6 (FIG. 14C) [4]: bind

Question: How did the “binding to BMP-5 (FIG. 14C)” value [3] turn out when SSGGVGGWALFETLRGKEVSR [SEQ ID NO: 6] was run?
Answer: bind

Question: What about the “binding to BMP-6 (FIG. 14C)” value [4] of the same molecule?
Answer: bind

Question: What about the “binding to GDF-7” value [6] of the same molecule?
Answer: binding GDF-7

Question: SSGPREIWDSLVGVVNPGWSR [SEQ ID NO: 5] was tested. Which “binding to BMP-5 (FIG. 14C)” value [3] did it give?
Answer: bind

Question: And the “binding to BMP-6 (FIG. 14C)” value [4]?
Answer: bind

Question: What about the “binding to GDF-7” value [6] of the same molecule?
Answer: binding GDF-7

Question: For SSVAEWALRSWEGMRVGEASR [SEQ ID NO: 7], which “binding to BMP-5 (FIG. 14C)” value [3] is on record?
Answer: bind

Question: And the “binding to BMP-6 (FIG. 14C)” value [4]?
Answer: bind

Question: What about the “binding to GDF-7” value [6] of the same molecule?
Answer: binding GDF-7

B1: BMP binding peptide SEQ ID NO: 7 (peptide)
peptide: SSVAEWALRSWEGMRVGEASR
modifications: also: biotinylated for plate assay, position not given here
notes: Found by phage display on immobilized GDF-7; also called P13
Question: With B1 as the molecule, how does the EC50 [7] read?
Answer: 1.1 nM

Question: {Mpa-MP-MP}-GGALGFPLKGEVVEGWA-NH2 (also: attached to collagen through a disulfide, also called Peptide1) [HS-Propionyl-MP-MP-(SEQ ID NO: 2)-amide, covalently attached to collagen] was tested. Which “fold BMP-2 retained against unmodified sponge after 24 h” value [8] did it give?
Answer: > 40 fold

B2: BMP binding peptide SEQ ID NO: 5 (peptide)
peptide: SSGPREIWDSLVGVVNPGWSR
modifications: also: biotinylated, position not given here
notes: Found by phage display on immobilized GDF-7; also called P11
Question: With B2 as the molecule, how does the EC50 [7] read?
Answer: 2 nM

B3: BMP binding peptide SEQ ID NO: 1 (peptide)
peptide: GGGAWEAFSSLSGSRV
modifications: also: biotinylated, position not given here
notes: Synthetic peptide found by phage display on immobilized BMP-2; also called P9
Question: With B3 as the molecule, how does the EC50 [9] read?
Answer: 0.8 nM

B4: BMP binding peptide SEQ ID NO: 6 (peptide)
peptide: SSGGVGGWALFETLRGKEVSR
modifications: also: biotinylated for plate assay, position not given here
notes: Found by phage display on immobilized GDF-7; also called P12
Question: With B4 as the molecule, how does the EC50 [7] read?
Answer: 1.8 nM

B5: BMP binding peptide SEQ ID NO: 1 containing a free thiol group, covalently attached to HELISTAT collagen (peptide)
peptide: GGGAWEAFSSLSGSRV
modifications: also: free thiol group added, position and spacer not given here, attached to collagen through a disulfide
notes: also called Peptide2; Peptide 2
Question: B5 was tested. Which “fold BMP-2 retained against unmodified sponge after 24 h” value [8] did it give?
Answer: > 40 fold

B6: BMP binding peptide SEQ ID NO: 2 (peptide)
peptide: GGALGFPLKGEVVEGWA
modifications: also: biotinylated, position not given here
notes: Synthetic peptide found by phage display on immobilized BMP-2; also called P10
Question: Which EC50 [9] does the source give for B6 here?
Answer: 0.9 nM
